The molecules below were run against T1, Zcchc11 enzyme (Homo sapiens, UniProt Q5TAX3) (assay: TUTase assay (Zcchc11 assay, Lin28a-dependent polyuridylation of pre-let-7)). Details: Lin28a-dependent Zcchc11 (Z11) TUTase activity; read-out: Potency Lin28a-dep Z11 IC50.
T1 construct: made in house; host or cells: HEK293 cells (Zcchc11); E. coli Rosetta II (LIN28A)
T1 sequence (Q5TAX3 212-1420): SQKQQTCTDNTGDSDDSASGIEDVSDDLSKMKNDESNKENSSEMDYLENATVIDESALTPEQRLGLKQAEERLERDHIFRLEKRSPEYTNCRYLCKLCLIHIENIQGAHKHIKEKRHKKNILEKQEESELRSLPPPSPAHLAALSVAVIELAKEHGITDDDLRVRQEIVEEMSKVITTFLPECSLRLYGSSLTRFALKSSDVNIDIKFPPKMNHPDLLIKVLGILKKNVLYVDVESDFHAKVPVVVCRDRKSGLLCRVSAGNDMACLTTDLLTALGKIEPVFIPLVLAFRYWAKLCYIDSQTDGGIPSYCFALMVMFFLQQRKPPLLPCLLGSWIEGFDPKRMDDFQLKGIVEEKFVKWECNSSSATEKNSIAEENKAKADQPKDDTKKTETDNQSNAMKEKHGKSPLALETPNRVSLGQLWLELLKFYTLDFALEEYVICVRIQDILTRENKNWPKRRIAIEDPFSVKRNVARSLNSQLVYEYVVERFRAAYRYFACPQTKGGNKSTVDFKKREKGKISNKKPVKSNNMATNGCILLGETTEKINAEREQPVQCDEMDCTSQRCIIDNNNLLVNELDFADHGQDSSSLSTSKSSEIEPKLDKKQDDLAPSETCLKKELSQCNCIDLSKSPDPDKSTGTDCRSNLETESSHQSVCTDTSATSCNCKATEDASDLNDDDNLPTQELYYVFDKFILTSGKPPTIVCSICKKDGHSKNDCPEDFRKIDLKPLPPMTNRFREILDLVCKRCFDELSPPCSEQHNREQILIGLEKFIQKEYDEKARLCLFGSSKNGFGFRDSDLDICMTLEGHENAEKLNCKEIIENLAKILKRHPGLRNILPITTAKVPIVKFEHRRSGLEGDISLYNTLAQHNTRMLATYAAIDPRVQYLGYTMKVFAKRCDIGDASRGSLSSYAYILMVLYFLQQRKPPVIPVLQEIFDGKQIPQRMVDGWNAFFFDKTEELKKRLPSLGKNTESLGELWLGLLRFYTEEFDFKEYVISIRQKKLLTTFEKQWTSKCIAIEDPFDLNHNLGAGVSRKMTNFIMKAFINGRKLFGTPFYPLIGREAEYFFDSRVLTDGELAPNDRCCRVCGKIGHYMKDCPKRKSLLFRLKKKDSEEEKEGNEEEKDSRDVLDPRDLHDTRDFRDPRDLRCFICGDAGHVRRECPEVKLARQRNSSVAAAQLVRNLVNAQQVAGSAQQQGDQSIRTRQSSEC
Type: biochemical
How it was run: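 LIN28A (10 nM) in pH 7.3 HEPES/KCl/MgCl2/DTT buffer was mixed with serially diluted compound, then 0.2 nM truncated human Zcchc11 and 2 nM labeled pre-let-7 were added for 30 min at room temperature. UTP (5 uM) and quench probe (4 nM) then started the reaction. Linear early rates gave IC50 values.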
`CN(C)C1CN(c2ccc(-n3cc(C(=O)O)c(=O)c4cc(Cl)c(N5CCC(C)(C)C5COc5nc(OC6CC6)ccc5Cl)cc43)cn2)C1` (stereo not shown) [Compound 272, 6-chloro-7-(2-(((3-chloro-6-cycloprop-oxypyridin-2-yl)oxy)methyl)-3,3-dimethyl-pyrrolidin-1-yl)-1-(6-(3-(dimethyl-amino)azetidin-1-yl)pyridin-3-yl)-4-oxo-1,4-dihydro-quinoline-3-carboxylic acid] showed an IC50 of at most 1 µM. Work on `CN(C)C1CN(c2ccc(-n3cc(C(=O)O)c(=O)c4cc(Cl)c(N5CCC[C@@H]5COc5nc6ncn(C)c6cc5Cl)cc43)cn2)C1` [Compound 273, (R)-6-chloro-7-(2-(((6-chloro-1-methyl-1H-imidazo [4,5-b]pyridin-5-yl)oxy)methyl)pyrrolidin-1-yl)-1-(6-(3-(dimethyl-amino)azetidin-1-yl)pyridin-3-yl)-4-oxo-1,4-dihydro-quinoline-3-carboxylic acid formic acid] yielded an IC50 of at most 1 µM. `CN(C)C1CN(c2ccc(-n3cc(C(=O)O)c(=O)c4cc(Cl)c(N5CC(OC6CC6)C[C@@H]5COc5ncccc5Cl)cc43)cn2)C1` (stereo partly drawn) [Compound 275, 6-chloro-7-((2R)-2-(((3-chloropyridin-2-yl)oxy)methyl)-4-cycloprop-oxypyrrolidin-1-yl)-1-(6-(3-(dimethyl-amino)azetidin-1-yl)pyridin-3-yl)-4-oxo-1,4-dihydro-quinoline-3-carboxylic acid] gave an IC50 of at most 1 µM. `CN(C)C1CN(c2ccc(-n3cc(C(=O)O)c(=O)c4cc(Cl)c(N5CC(c6cn(C)cn6)C[C@@H]5COc5ncccc5Cl)cc43)cn2)C1` (stereo partly drawn) [Compound 276, 6-chloro-7-((2R)-2-(((3-chloropyridin-2-yl)oxy)methyl)-4-(1-methyl-1H-imidazol-4-yl)pyrrolidin-1-yl)-1-(6-(3-(dimethyl-amino)azetidin-1-yl)pyridin-3-yl)-4-oxo-1,4-dihydro-quinoline-3-carboxylic acid] showed an IC50 of at most 1 µM. For `CN(C)C1CN(c2ccc(-n3cc(C(=O)O)c(=O)c4cc(Cl)c(N5CCC[C@]5(C)COc5ncccc5Cl)cc43)cn2)C1` [Compound 277, (R)-6-chloro-7-(2-(((3-chloropyridin-2-yl)oxy)methyl)-2-methyl-pyrrolidin-1-yl)-1-(6-(3-(dimethyl-amino)azetidin-1-yl)pyridin-3-yl)-4-oxo-1,4-dihydro-quinoline-3-carboxylic acid formic acid], the IC50 was at most 1 µM. With `COCCN(C)C1CN(c2ccc(-n3cc(C(=O)O)c(=O)c4cc(F)c(N5CCC[C@@H]5COc5ncccc5Cl)cc43)cn2)C1` [Compound 278, (R)-7-(2-(((3-chloropyridin-2-yl)oxy)methyl)pyrrolidin-1-yl)-6-fluoro-1-(6-(3-((2-methoxyethyl) (methyl)amino)azetidin-1-yl)pyridin-3-yl)-4-oxo-1,4-dihydro-quinoline-3-carboxylic acid] the IC50 was at most 1 µM. `COc1ccc(Cl)c(OCC23CC(CN2c2nc4c(cc2Cl)c(=O)c(C(=O)O)cn4-c2ccc(N4CC(N(C)C)C4)nc2)C3)n1` [Compound 279, 6-chloro-7-(1-(((3-chloro-6-methoxy-pyridin-2-yl)oxy)methyl)-2-azabicyclo [2.1.1]hexan-2-yl)-1-(6-(3-(dimethyl-amino)azetidin-1-yl)pyridin-3-yl)-4-oxo-1,4-dihydro-1,8-naphthyridine-3-carboxylic acid formic acid] gave an IC50 of at most 1 µM. `CN(C)C1CN(c2cnc(-n3cc(C(=O)O)c(=O)c4cc(C#N)c(N5CCC[C@@H]5COc5ncccc5Cl)nc43)cn2)C1` [Compound 280, (R)-7-(2-(((3-chloropyridin-2-yl)oxy)methyl)pyrrolidin-1-yl)-6-cyano-1-(5-(3-(dimethyl-amino)azetidin-1-yl)pyrazin-2-yl)-4-oxo-1,4-dihydro-1,8-naphthyridine-3-carboxylic acid] was tested, and the IC50 was at most 1 µM. Molecule `Cn1cc(-n2cc(C(=O)O)c(=O)c3cc(C#N)c(N4CCC[C@H]4COc4ncccc4Cl)nc32)cn1` [Compound 281, (S)-7-(2-(((3-chloropyridin-2-yl)oxy)methyl)pyrrolidin-1-yl)-6-cyano-1-(1-methyl-1H-pyrazol-4-yl)-4-oxo-1,4-dihydro-1,8-naphthyridine-3-carboxylic acid] has an IC50 of at most 1 µM. `CN(C)C1CN(c2ccc(-n3cc(C(=O)O)c(=O)c4cc(Cl)c(N5C6CCC5(COc5ncccc5Cl)CC6)cc43)cn2)C1` [Compound 282, 6-chloro-7-(1-(((3-chloropyridin-2-yl)oxy)methyl)-7-azabicyclo [2.2.1]heptan-7-yl)-1-(6-(3-(dimethyl-amino)azetidin-1-yl)pyridin-3-yl)-4-oxo-1,4-dihydro-quinoline-3-carboxylic acid] gave an IC50 of at most 1 µM. `N#Cc1cc2c(=O)c(C(=O)O)cn(-c3cnccn3)c2nc1N1CCC[C@@H]1COc1ccccc1` [Compound 283, (R)-6-cyano-4-oxo-7-(2-(phenoxy-methyl)pyrrolidin-1-yl)-1-(pyrazin-2-yl)-1,4-dihydro-1,8-naphthyridine-3-carboxylic acid] showed an IC50 of 10 to 50 µM. `CN(C)C1CN(c2ccc(-n3cc(C(=O)O)c(=O)c4cc(C#N)c(N5CCC[C@]5(C)COc5ncccc5F)cc43)cn2)C1` [Compound 284, (R)-6-cyano-1-(6-(3-(dimethyl-amino)azetidin-1-yl)pyridin-3-yl)-7-(2-(((3-fluoropyridin-2-yl)oxy)methyl)-2-methyl-pyrrolidin-1-yl)-4-oxo-1,4-dihydro-quinoline-3-carboxylic acid] showed an IC50 of at most 1 µM. With `CN(C)C1CN(c2ccc(-n3cc(C(=O)O)c(=O)c4cc(C#N)c(N5CCC[C@@]5(C)COc5ncccc5F)cc43)cn2)C1` [Compound 285, (S)-6-cyano-1-(6-(3-(dimethyl-amino)azetidin-1-yl)pyridin-3-yl)-7-(2-(((3-fluoropyridin-2-yl)oxy)methyl)-2-methyl-pyrrolidin-1-yl)-4-oxo-1,4-dihydro-quinoline-3-carboxylic acid] the IC50 was at most 1 µM. `O=C(O)c1cn(-c2cnccn2)c2cc(N3C(=O)CC[C@@H]3COc3ccccn3)c(Cl)cc2c1=O` [Compound 286, (R)-6-chloro-4-oxo-7-(2-oxo-5-((pyridin-2-yloxy)methyl)pyrrolidin-1-yl)-1-(pyrazin-2-yl)-1,4-dihydro-quinoline-3-carboxylic acid] showed an IC50 of over 50 µM. Work on `O=C(O)c1cn(-c2ccc(N3CCC3)nc2)c2cc(N3C(=O)CC[C@@H]3COc3ccccn3)c(Cl)cc2c1=O` [Compound 287, (R)-1-(6-(azetidin-1-yl)pyridin-3-yl)-6-chloro-4-oxo-7-(2-oxo-5-((pyridin-2-yloxy)methyl)pyrrolidin-1-yl)-1,4-dihydro-quinoline-3-carboxylic acid] yielded an IC50 of 10 to 50 µM. `CC1(n2cc(C(=O)O)c(=O)c3cc(Cl)c(N4C(=O)CC[C@H]4COc4ccccn4)cc32)CC1` [Compound 288, (S)-6-chloro-1-(1-methylcyclo-propyl)-4-oxo-7-(2-oxo-5-((pyridin-2-yloxy)methyl)pyrrolidin-1-yl)-1,4-dihydro-quinoline-3-carboxylic acid] showed an IC50 of over 50 µM. `O=C(O)c1cn(-c2ccc(N3CCC3)nc2)c2cc(N3CCC[C@@H]3COc3ncccc3F)c(Cl)cc2c1=O` [Compound 289, (R)-1-(6-(azetidin-1-yl)pyridin-3-yl)-6-chloro-7-(2-(((3-fluoropyridin-2-yl)oxy)methyl)pyrrolidin-1-yl)-4-oxo-1,4-dihydro-quinoline-3-carboxylic acid] was tested, and the IC50 was at most 1 µM. With `Cc1cccnc1OC[C@H]1CCCN1c1cc2c(cc1F)c(=O)c(C(=O)O)cn2-c1cnn(C)c1` [Compound 291, (R)-6-fluoro-1-(1-methyl-1H-pyrazol-4-yl)-7-(2-(((3-methylpyridin-2-yl)oxy)methyl)pyrrolidin-1-yl)-4-oxo-1,4-dihydro-quinoline-3-carboxylic acid] the IC50 was at most 1 µM. For `CN(C)C(=O)NC[C@H]1CCCN1c1cc2c(cc1Cl)c(=O)c(C(=O)O)cn2-c1ccc(N2CC(N(C)C)C2)nc1` [Compound 292, (R)-6-chloro-1-(6-(3-(dimethyl-amino)azetidin-1-yl)pyridin-3-yl)-7-(2-((3,3-dimethyl-ureido)methyl)pyrrolidin-1-yl)-4-oxo-1,4-dihydro-quinoline-3-carboxylic acid], the IC50 was at most 1 µM.

Reference: patent US12662491B2 (Redona Therapeutics, Inc., priority 2020, dated 2026)
